pIC50: −log10 of the molar value.
Experiments:
Type in all cases: cell-based
[1] = tested on: NCI-H226 cells; experiment: NCI-H226 proliferation assay (Wuxi AppTec); settings: Homo sapiens, 168 h, 7 days, CellTiter-Glo, top dose 10, 3-fold dilution, 9 doses
Protocol: […] Proliferation Assay (From Wuxi AppTec CO.):
Day −1: Seeding cells • (1) Equilibrate cell culture medium to 37° C. • (2) Remove and discard the culture medium. • (3) Briefly rinse the cell layer with PBS to remove all traces of serum that contains […]. • (4) Add 2-3 mL of Trypsin-EDTA solution to flask and observe cells under an inverted microscope until cell layer is dispersed. • (5) Add 6-8 mL of growth medium to terminate the digestion of Trypsin/EDTA. • (6) Centrifuge the mixture (Trypsin EDTA and the growth medium) at 1000 rpm for 5 mins. • (7) Discard the supernatant, suspend the cell precipitation with the fresh growth medium, then take 1 mL the cell suspension to count cells with Vi-cell XR cell viability analyzer. • (8) Adjust the cell density to 500 cells/well for 384-well plates. • (9) Add 50 µL/well volume cell suspension to the assay plate. • (10) Add […] media to the control columns. • (11) Incubate the plate at 37° C., 5% CO2 for overnight. Day 0: Compounds treatment • (1) Add cpds to each well by Tecan HP D300E. The top dose is […], 3-fold dilution and 9 doses. DMSO final concentration will be normalized to 0.2%. • (2) Incubate the assay plate at 37° C., 5% CO2 for 7 days. Day 7: Plate read • (1) Equilibrate the assay plate to the room temperature for nearly 30 minutes. • (2) Add […] CellTiter-Glo reagent to each well and shake the plate for 1 min, incubate 10 min and keep them from light. • (3) Detect the plate by EnVision. Data analysis:
Max: Average of the DMSO group Min: Average of medium group.

[2] = tested on: NCI-H226 cells; experiment: NCI-H226 proliferation assay (in house); settings: Homo sapiens, 120 h, 5 days, Cell TiterGlo, 20-point 1:2 dilution from 20 μM
Summary of the method: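 Viability by CellTiter-Glo luminescence after 5-day compound exposure at 37 °C, 5% CO2. Compounds added 24 h post-seeding (500 cells/well, RPMI 1640 with 10% FBS) as 20-point, 2-fold series from 20 μM final, triplicate wells.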

[3] = tested on: transcriptional activity of TEADs; experiment: TEAD reporter assay (MCF7 TEAD-LUC reporter cells); settings: Homo sapiens, 24 hours, BrightGlo luminescence
Summary of the method: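 Luminescence (BrightGlo) was read after 24 h of compound treatment at 37 °C, 5 % CO2. Cells had been seeded at 5,000 per well in DMEM with 10 % FBS and insulin and rested 24 h first. Dosing used 20 points, 1:2 dilution from 20 μM final, triplicates.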

IC50 [1]	IC50 [2]	pIC50 [3]	Compound
1.45 µM	0.079 µM	8.54	C=CC(=O)N1CCN(c2nccnc2NC2C3CC2C3C(F)(F)F)CC1 (stereo not drawn) [Example 67, 1-(4-(3-((4-(trifluoromethyl)bicyclo[1.1.1]pentan-2-yl)amino)pyrazin-2-yl)piperazin-1-yl)prop-2-en-1-one]
0.007 µM	0.008 µM	8.89	C=CC(=O)N1CCN(c2nccnc2Oc2ccc(OC(F)F)cc2)CC1 [Example 71, 1-(4-(3-(4-(difluoromethoxy)phenoxy)pyrazin-2-yl)piperazin-1-yl)prop-2-en-1-one]
0.011 µM	0.005 µM	9.28	C=CC(=O)N1CCN(c2nccnc2Oc2ccc(OC(F)(F)F)cc2)CC1 [Example 72, 1-(4-(3-(4-(trifluoromethoxy)phenoxy)pyrazin-2-yl)piperazin-1-yl)prop-2-en-1-one]
0.009 µM	0.032 µM	8.68	C=C(F)C(=O)N1CCN(c2nccnc2Oc2ccc(C(F)(F)F)nc2)CC1 [Example 78, 2-fluoro-1-(4-(3-((6-(trifluoromethyl)pyridin-3-yl)oxy)pyrazin-2-yl)piperazin-1-yl)prop-2-en-1-one]
0.047 µM	0.025 µM	8.85	C=CC(=O)N1CCN(c2nccnc2Oc2cnc(C(F)(F)F)nc2)CC1 [Example 87, 1-(4-(3-((2-(trifluoromethyl)pyrimidin-5-yl)oxy)pyrazin-2-yl)piperazin-1-yl)prop-2-en-1-one]
0.027 µM	0.047 µM	8.72	C=C(F)C(=O)N1CCN(c2nccnc2Oc2cnc(C(F)(F)F)nc2)CC1 [Example 88, 2-fluoro-1-(4-(3-((2-(trifluoromethyl)pyrimidin-5-yl)oxy)pyrazin-2-yl)piperazin-1-yl)prop-2-en-1-one]
0.017 µM	0.018 µM	9.08	C=CC(=O)N1CCN(c2nccnc2OC2CCC(C(F)(F)F)CC2)CC1 (stereo not drawn) [Example 94, 1-(4-(3-((4-(trifluoromethyl)cyclohexyl)oxy)pyrazin-2-yl)piperazin-1-yl)prop-2-en-1-one]
0.089 µM	0.012 µM	8.44	C=CC(=O)N1CCN(c2nccnc2C(=O)c2ccc(C(F)(F)F)nc2)CC1 [Example 96, 1-(4-(3-(6-(trifluoromethyl)nicotinoyl)pyrazin-2-yl)piperazin-1-yl)prop-2-en-1-one]
0.05 µM	0.004 µM	8.96	C=CC(=O)N1CCN(c2nccnc2N2CCC(C(F)(F)F)CC2)CC1 [Example 105, 1-(4-(3-(4-(trifluoromethyl)piperidin-1-yl)pyrazin-2-yl)piperazin-1-yl)prop-2-en-1-one]
0.049 µM	0.018 µM	9.15	C=CC(=O)N1CCN(c2nccnc2N2CC(c3ccc(F)cc3)C2)CC1 [Example 107, 1-(4-(3-(3-(4-fluorophenyl)azetidin-1-yl)pyrazin-2-yl)piperazin-1-yl)prop-2-en-1-one]
0.046 µM	0.067 µM	8.52	C=CC(=O)N1CCN(c2nccnc2N2CC3(CC(C(F)(F)F)C3)C2)CC1 [Example 110, 1-(4-(3-(6-(trifluoromethyl)-2-azaspiro[3.3]heptan-2-yl)pyrazin-2-yl)piperazin-1-yl)prop-2-en-1-one]
0.032 µM	0.04 µM	8.57	C=CC(=O)N1CCN(c2nc(C)c(C)nc2Nc2ccc(C(F)(F)F)nc2)CC1 [Example 113, 1-(4-(5,6-dimethyl-3-((6-(trifluoromethyl)pyridin-3-yl)amino)pyrazin-2-yl)piperazin-1-yl)prop-2-en-1-one]
0.042 µM	0.012 µM	8.49	C=CC(=O)N1CCN(c2ccnnc2Nc2ccc(C(F)(F)F)cc2)CC1 [Example 119, 1-(4-(3-((4-(trifluoromethyl)phenyl)amino)pyridazin-4-yl)piperazin-1-yl)prop-2-en-1-one]
0.082 µM	0.179 µM	8.80	C=CC(=O)N1CCN(c2nc(C)ncc2Nc2ccc(C(F)(F)F)cc2)CC1 [Example 128, 1-(4-(2-methyl-5-((4-(trifluoromethyl)phenyl)amino)pyrimidin-4-yl)piperazin-1-yl)prop-2-en-1-one]
0.018 µM	0.015 µM	8.74	C=CC(=O)N1CCC(c2cccnc2Oc2ccc(C(F)(F)F)nc2)CC1 [Example 155, 1-(4-(2-((6-(trifluoromethyl)pyridin-3-yl)oxy)pyridin-3-yl)piperidin-1-yl)prop-2-en-1-one]
0.051 µM	0.022 µM	8.74	C=CC(=O)N1CCC(c2cccnc2Oc2cnc(C(F)(F)F)nc2)CC1 [Example 159, 1-(4-(2-((2-(trifluoromethyl)pyrimidin-5-yl)oxy)pyridin-3-yl)piperidin-1-yl)prop-2-en-1-one]

The remaining lines, values behind:

Compound	IC50 [1]	IC50 [2]	pIC50 [3]
C=CC(=O)N1CC=C(c2nccnc2Oc2ccc(C(F)(F)F)cn2)CC1 [Example 74, 1-(4-(3-((5-(trifluoromethyl)pyridin-2-yl)oxy)pyrazin-2-yl)-3,6-dihydropyridin-1(2H)-yl)prop-2-en-1-one]	0.121 µM	0.449 µM	8.62
C=C(F)C(=O)N1CC=C(c2nccnc2Oc2ccc(C(F)(F)F)nc2)CC1 [Example 85, 2-fluoro-1-(4-(3-((6-(trifluoromethyl)pyridin-3-yl)oxy)pyrazin-2-yl)-3,6-dihydropyridin-1(2H)-yl)prop-2-en-1-one]	0.011 µM	0.016 µM	8.80
C=CC(=O)N1CC=C(c2nccnc2Oc2cnc(C(F)(F)F)nc2)CC1 [Example 89, 1-(4-(3-((2-(trifluoromethyl)pyrimidin-5-yl)oxy)pyrazin-2-yl)-3,6-dihydropyridin-1(2H)-yl)prop-2-en-1-one]	0.033 µM	0.164 µM	8.74
C=C(F)C(=O)N1CC=C(c2nccnc2Oc2cnc(C(F)(F)F)nc2)CC1 [Example 90, 2-fluoro-1-(4-(3-((2-(trifluoromethyl)pyrimidin-5-yl)oxy)pyrazin-2-yl)-3,6-dihydropyridin-1(2H)-yl)prop-2-en-1-one]	0.031 µM	0.033 µM	8.23
C=CC(=O)N1CCC(c2cncnc2Oc2ccc(C(F)(F)F)nc2)CC1 [Example 126, 1-(4-(4-((6-(trifluoromethyl)pyridin-3-yl)oxy)pyrimidin-5-yl)piperidin-1-yl)prop-2-en-1-one]	0.339 µM	0.364 µM	7.72
C=CC(=O)N1CC=C(c2cnc(C)nc2Oc2ccc(C(F)(F)F)nc2)CC1 [Example 129, 1-(4-(2-methyl-4-((6-(trifluoromethyl)pyridin-3-yl)oxy)pyrimidin-5-yl)-3,6-dihydropyridin-1(2H)-yl)prop-2-en-1-one]	0.137 µM	0.104 µM	8.92
C=CC(=O)N1CCC(c2ncccc2Oc2ccc(C(F)(F)F)nc2)CC1 [Example 138, 1-(4-(3-((6-(trifluoromethyl)pyridin-3-yl)oxy)pyridin-2-yl)piperidin-1-yl)prop-2-en-1-one]	0.134 µM	2.4 µM	7.27
C=CC(=O)N1CC=C(c2cccnc2Nc2ccc(C(F)(F)F)nc2)CC1 [Example 145, 1-(2-((6-(trifluoromethyl)pyridin-3-yl)amino)-3′,6′-dihydro-[3,4′-bipyridin]-1′(2′H)-yl)prop-2-en-1-one]	0.017 µM	0.029 µM	8.62
C=CC(=O)N1CC=C(c2cccnc2Oc2ccc(C(F)(F)F)nc2)CC1 [Example 153, 1-(2-((6-(trifluoromethyl)pyridin-3-yl)oxy)-3′,6′-dihydro-[3,4′-bipyridin]-1′(2′H)-yl)prop-2-en-1-one]	0.065 µM	0.034 µM	8.85
C=C(F)C(=O)N1CC=C(c2cccnc2Oc2ccc(C(F)(F)F)nc2)CC1 [Example 154, 2-fluoro-1-(2-((6-(trifluoromethyl)pyridin-3-yl)oxy)-3′,6′-dihydro-[3,4′-bipyridin]-1′(2′H)-yl)prop-2-en-1-one]	0.02 µM	0.05 µM	8.54
C=CC(=O)N1CC=C(c2cccnc2Oc2cnc(C(F)(F)F)nc2)CC1 [Example 157, 1-(2-((2-(trifluoromethyl)pyrimidin-5-yl)oxy)-3′,6′-dihydro-[3,4′-bipyridin]-1′(2′H)-yl)prop-2-en-1-one]	0.013 µM	0.132 µM	8.80

Reference: patent US20250206722A1, “SMALL MOLECULE INHIBITORS OF TEA DOMAIN FAMILY MEMBERS” (The Scripps Research Institute, priority 2022, published 2025)
